For one experiment, the target named is T1, BRAF G466V (Homo sapiens, UniProt P15056, G466V).
T1 construct: expressed in transfected cells
Kind of experiment: Cellular assay of target protein degradation, T-Rex 293 cells stably transfected with HA-BRAF G466V (HA immunofluorescence, high content imaging). The experiment is classed as cell-based. In outline: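 HA-BRAF G466V levels were read by HA immunofluorescence and high-content imaging after 24 h compound exposure (final 30 nM–3 pM, 0.1% DMSO, 37 °C). Expression was induced with 0.75 ng/mL doxycycline. Outputs: half-maximal degradation concentration (DC50) and maximal degradation (Dmax) relative to control.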

The next experiment addresses T2, BRAF V600E (Homo sapiens, UniProt P15056, V600E).
T2 construct: expressed in transfected cells
As to the kind of experiment: Cellular assay of target protein degradation, T-Rex 293 cells stably transfected with HA-BRAF_V600E (HA immunofluorescence, high content imaging). The experiment is classed as cell-based. In outline: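 HA immunofluorescence on fixed cells, imaged by high-content reader, measured loss of HA-BRAF V600E in stably transfected T-Rex 293 cells induced with 1 ng/mL doxycycline. Compounds were applied for 24 h at 37 °C (final 0.1 nM–1 μM, 0.1% DMSO); DC50 and Dmax (% of control) were reported.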

Setting [1] is: half maximal degradation, T-Rex 293 HA-BRAF G466V; read-out: BRaf G466V DC50.
Where [2] appears, read: maximum degradation observed, T-Rex 293 HA-BRAF G466V.
[3] abbreviates: half maximal degradation, T-Rex 293 HA-BRAF V600E; read-out: BRaf V600E DC50.
The mark [4] stands for this setting: maximum degradation observed, T-Rex 293 HA-BRAF V600E.

Where two headings read alike, the source gives them in different places.

T1 sequence (P15056 whole entry G466V): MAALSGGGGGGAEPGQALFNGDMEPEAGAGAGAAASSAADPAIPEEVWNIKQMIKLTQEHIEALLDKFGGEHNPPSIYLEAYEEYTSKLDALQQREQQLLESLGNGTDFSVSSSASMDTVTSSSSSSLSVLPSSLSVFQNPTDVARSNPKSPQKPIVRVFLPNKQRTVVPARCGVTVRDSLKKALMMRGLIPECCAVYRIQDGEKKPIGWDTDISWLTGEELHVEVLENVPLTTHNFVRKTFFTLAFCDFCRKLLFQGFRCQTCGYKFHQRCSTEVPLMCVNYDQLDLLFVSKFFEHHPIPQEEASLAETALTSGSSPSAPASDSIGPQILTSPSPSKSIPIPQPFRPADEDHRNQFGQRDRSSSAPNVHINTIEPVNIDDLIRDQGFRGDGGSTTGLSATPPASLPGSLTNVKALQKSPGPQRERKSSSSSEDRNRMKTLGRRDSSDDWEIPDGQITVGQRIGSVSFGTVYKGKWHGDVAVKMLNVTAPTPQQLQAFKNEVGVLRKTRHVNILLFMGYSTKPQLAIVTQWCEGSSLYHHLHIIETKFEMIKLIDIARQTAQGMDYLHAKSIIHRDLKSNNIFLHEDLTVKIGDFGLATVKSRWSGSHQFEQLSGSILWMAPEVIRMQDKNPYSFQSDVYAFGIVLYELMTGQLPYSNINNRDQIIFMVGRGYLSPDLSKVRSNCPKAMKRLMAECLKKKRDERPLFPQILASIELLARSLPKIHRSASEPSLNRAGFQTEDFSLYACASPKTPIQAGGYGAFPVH
T2 sequence (P15056 whole entry V600E): as the sequence (P15056 whole entry G466V) above, with V466G, V600E counted along it

What is called DC50 is the concentration giving 50% degradation. A word on the Dmax: it is the largest share of the target that was removed. With `COc1cc(N2CCN(CC3CCN(c4ccc(-c5cnc6[nH]cc(C(=O)c7c(F)ccc(NS(=O)(=O)N8CC[C@@H](F)C8)c7F)c6c5)cc4)CC3)CC2)ccc1C(=O)N[C@H]1CCC(=O)NC1=O` [Compound 359, 4-(4-{[1-(4-{3-[2,6-difluoro-3-({[(3R)-3-fluoropyrrolidin-1-yl]sulfonyl}amino)benzoyl]-1H-pyrrolo[2,3-b]pyridin-5-yl}phenyl)piperidin-4-yl]methyl}piperazin-1-yl)-N-[(3S)-2,6-dioxopiperidin-3-yl]-2-methoxybenzamide], the values for the DC50 on BRAF G466V (setting [1]) and on BRAF V600E (setting [3]) were 1 to 10 nM and 5 to 50 nM, respectively. For the same molecule, the Dmax at BRAF G466V (setting [2]) is above 70%; on BRAF V600E (setting [4]), 35 to 70%.

For `COc1cc(N2CCN(CC3CCN(c4ccc(-c5cnc6[nH]cc(C(=O)c7c(F)ccc(NS(=O)(=O)N8CC[C@@H](F)C8)c7F)c6c5)cc4)CC3)CC2)ccc1C(=O)NC1CCC(=O)NC1=O` (stereo partly drawn) [Compound 360, 4-(4-{[1-(4-{3-[2,6-difluoro-3-({[(3R)-3-fluoropyrrolidin-1-yl]sulfonyl}amino)benzoyl]-1H-pyrrolo[2,3-b]pyridin-5-yl}phenyl)piperidin-4-yl]methyl}piperazin-1-yl)-N-(2,6-dioxopiperidin-3-yl)-2-methoxybenzamide], the results for the DC50 at BRAF G466V (setting [1]) and on BRAF V600E (setting [3]) were 1 to 10 nM and below 5 nM, respectively. The Dmax on BRAF G466V (setting [2]) was above 70%; at BRAF V600E (setting [4]) it was below 35%.

For `COc1cc(N2CC3(CN(CCc4ccc(-c5cnc6[nH]cc(C(=O)c7c(F)ccc(NS(=O)(=O)N8CC[C@@H](F)C8)c7F)c6c5)cc4)C3)C2)ccc1C(=O)N[C@H]1CCC(=O)NC1=O` [Compound 361, 4-{6-[2-(4-{3-[2,6-difluoro-3-({[(3R)-3-fluoropyrrolidin-1-yl]sulfonyl}amino)benzoyl]-1H-pyrrolo[2,3-b]pyridin-5-yl}phenyl)ethyl]-2,6-diazaspiro[3.3]heptan-2-yl}-N-[(3S)-2,6-dioxopiperidin-3-yl]-2-methoxybenzamide], the DC50 at BRAF G466V (setting [1]) lay within 1 to 10 nM; on BRAF V600E (setting [3]), 5 to 50 nM. In addition, the values for the Dmax on BRAF G466V (setting [2]) and on BRAF V600E (setting [4]) were above 70% and 35 to 70%, respectively.

With `COc1cc(N2CC3(CN(CCc4ccc(-c5cnc6[nH]cc(C(=O)c7c(F)ccc(NS(=O)(=O)N8CC[C@@H](F)C8)c7F)c6c5)cc4)C3)C2)ccc1C(=O)NC1CCC(=O)NC1=O` (stereo partly drawn) [Compound 362, 4-{6-[2-(4-{3-[2,6-difluoro-3-({[(3R)-3-fluoropyrrolidin-1-yl]sulfonyl}amino)benzoyl]-1H-pyrrolo[2,3-b]pyridin-5-yl}phenyl)ethyl]-2,6-diazaspiro[3.3]heptan-2-yl}-N-(2,6-dioxopiperidin-3-yl)-2-methoxybenzamide], the DC50 on BRAF G466V (setting [1]) was 1 to 10 nM; at BRAF V600E (setting [3]), 5 to 50 nM. Moreover, the Dmax at BRAF G466V (setting [2]) is above 70%; on BRAF V600E (setting [4]) it was 35 to 70%.

Regarding `Nc1ccc(F)c(C(=O)c2c[nH]c3ncc(-c4ccc(N5CCC(CN6CC7(C6)CN(c6ccc(C(=O)N[C@H]8CCC(=O)NC8=O)c(F)c6)C7)CC5)cc4)cc23)c1F` [Compound 363, 4-{6-[(1-{4-[3-(3-amino-2,6-difluorobenzoyl)-1H-pyrrolo[2,3-b]pyridin-5-yl]phenyl}piperidin-4-yl)methyl]-2,6-diazaspiro[3.3]heptan-2-yl}-N-[(3S)-2,6-dioxopiperidin-3-yl]-2-fluorobenzamide], the DC50 at BRAF G466V (setting [1]) was above 30 nM; on BRAF V600E (setting [3]), above 500 nM.

As to `O=C1CCC(NC(=O)N2CCCc3c(C4CCN(CC5CCN(c6ccc(-c7cnc8[nH]cc(C(=O)c9c(F)ccc(NS(=O)(=O)N%10CC[C@@H](F)C%10)c9F)c8c7)cc6)CC5)CC4)ccnc32)C(=O)N1` (stereo partly drawn) [Compound 364, 5-(1-{[1-(4-{3-[2,6-difluoro-3-({[(3R)-3-fluoropyrrolidin-1-yl]sulfonyl}amino)benzoyl]-1H-pyrrolo[2,3-b]pyridin-5-yl}phenyl)piperidin-4-yl]methyl}piperidin-4-yl)-N-(2,6-dioxopiperidin-3-yl)-1,2,3,4-tetrahydro-1,8-naphthyridine-1-carboxamide], the results for the Dmax at BRAF G466V (setting [2]) and at BRAF V600E (setting [4]) were above 70% and 35 to 70%, respectively. In addition, the DC50 at BRAF G466V (read-out: BRaf G466V DC50; half maximal degradation, T-Rex 293 HA-BRAF G466V) is 1 to 10 nM; at BRAF V600E (read-out: BRaf V600E DC50; half maximal degradation, T-Rex 293 HA-BRAF V600E), 5 to 50 nM.

Regarding `O=C1CCC(c2ccc(C3CCN(CC4CCN(c5ccc(-c6cnc7[nH]cc(C(=O)c8c(F)ccc(NS(=O)(=O)N9CC[C@@H](F)C9)c8F)c7c6)cc5)CC4)CC3)cn2)C(=O)N1` (stereo partly drawn) [Compound 365, (3R)-N-[3-(5-{4-[4-({4-[6-(2,6-dioxopiperidin-3-yl)pyridin-3-yl]piperidin-1-yl}methyl)piperidin-1-yl]phenyl}-1H-pyrrolo[2,3-b]pyridine-3-carbonyl)-2,4-difluorophenyl]-3-fluoropyrrolidine-1-sulfonamide], the DC50 on BRAF G466V (setting [1]) lay in the range of 1 to 10 nM; on BRAF V600E (setting [3]), 5 to 50 nM. The Dmax at BRAF G466V (setting [2]) and at BRAF V600E (setting [4]) was above 70% throughout.

On to `O=C1CC[C@H](NC(=O)N2CCCc3c(C4CCN(CC5CCN(c6ccc(-c7cnc8[nH]cc(C(=O)c9c(F)ccc(NS(=O)(=O)N%10CC[C@@H](F)C%10)c9F)c8c7)cc6)CC5)CC4)ccnc32)C(=O)N1` [Compound 366, 5-(1-{[1-(4-{3-[2,6-difluoro-3-({[(3R)-3-fluoropyrrolidin-1-yl]sulfonyl}amino)benzoyl]-1H-pyrrolo[2,3-b]pyridin-5-yl}phenyl)piperidin-4-yl]methyl}piperidin-4-yl)-N-[(3S)-2,6-dioxopiperidin-3-yl]-1,2,3,4-tetrahydro-1,8-naphthyridine-1-carboxamide], for which the DC50 fell in the range of 1 to 10 nM on BRAF G466V (setting [1]) and 5 to 50 nM at BRAF V600E (setting [3]). Further, the Dmax was above 70% at BRAF G466V (setting [2]) and 35 to 70% at BRAF V600E (setting [4]).

In the case of `O=C1CC[C@@H](NC(=O)N2CCCc3c(C4CCN(CC5CCN(c6ccc(-c7cnc8[nH]cc(C(=O)c9c(F)ccc(NS(=O)(=O)N%10CC[C@@H](F)C%10)c9F)c8c7)cc6)CC5)CC4)ccnc32)C(=O)N1` [Compound 367, 5-(1-{[1-(4-{3-[2,6-difluoro-3-({[(3R)-3-fluoropyrrolidin-1-yl]sulfonyl}amino)benzoyl]-1H-pyrrolo[2,3-b]pyridin-5-yl}phenyl)piperidin-4-yl]methyl}piperidin-4-yl)-N-[(3R)-2,6-dioxopiperidin-3-yl]-1,2,3,4-tetrahydro-1,8-naphthyridine-1-carboxamide], the DC50 was 1 to 10 nM on BRAF G466V (setting [1]) and above 500 nM at BRAF V600E (setting [3]). The same molecule had a Dmax on BRAF G466V (setting [2]) below 35%.

In the case of `O=C1CCC(c2ccc(N3CC4(CN(CC5CCN(c6ccc(-c7cnc8[nH]cc(C(=O)c9c(F)ccc(NS(=O)(=O)N%10CC[C@@H](F)C%10)c9F)c8c7)cc6)CC5)C4)C3)cc2)C(=O)N1` (stereo partly drawn) [Compound 368, (3R)-N-[3-(5-{4-[4-({6-[4-(2,6-dioxopiperidin-3-yl)phenyl]-2,6-diazaspiro[3.3]heptan-2-yl}methyl)piperidin-1-yl]phenyl}-1H-pyrrolo[2,3-b]pyridine-3-carbonyl)-2,4-difluorophenyl]-3-fluoropyrrolidine-1-sulfonamide], the values for the DC50 on BRAF G466V (setting [1]) and at BRAF V600E (setting [3]) were 1 to 10 nM and 5 to 50 nM, respectively. Further, the Dmax on BRAF G466V (setting [2]) and on BRAF V600E (setting [4]) was 35 to 70% each time.

The record behind these values is US12180193B2, “Accelerating fibrosarcoma protein degrading compounds and associated methods of use” (Arvinas Operations, Inc., priority 2020, dated 2024).
